In patent US5045567A, “Propanolamine derivatives having anti-diabetic effects” (Hoffmann-La Roche Inc., priority 1989, dated 1991):
Structures can show the parent of a compound that is named as a salt. Where two headings read alike, the source gives them in different places.

What was measured:
[1] = Activity on oxygen consumption (male albino rats in metabolic cages, per os); type: in vivo; details: po; for response vs control in vivo at 3 µM, 3 µmol/kg: dosage 3 μM/kg
Procedure: (1) -Activity on oxygen consumption
Male albino rats weighing 160-180 g were placed in metabolic cages after fasting for 24 hours. The cages were ventilated with a constant 6 liter room air/minute which was equilibrated at a dew point of 11° C. Samples of the spent air were collected during periods of in each case 14 minutes after again equilibrating and the oxygen content and CO2 content were analyzed. After an adaptation time of 4 hours the animals, divided into groups of 6, received either placebo (5% gum arabic) or the test substance (suspended in 5% gum arabic) per os. Thereafter, the determinations were carried out for a period of 12 hours. In Table I the average oxygen consumption after medication during the first 3 hours and the entire test duration (12 hours) is given as percentage of the oxygen consumption during the adaptation period. Corresponding corrections for changes in the placebo group have been taken into consideration.

[2] = Activity on heart rate (male albino rats, electrocardiogram, per os); type: in vivo; details: rat; for Heart rate (% of controls), 1 hour: 1 hour after treatment; for Heart rate (% of controls), 3 hours: 3 hours after treatment
Procedure: (2) Activity on heart rate
Male albino rats weighing 250-320 g received 6 hours after withdrawl of food either placebo (5% gum arabic) or the test substance (suspended in 5% gum arabic) per os. The animals were subsequently immobilized in perforated plastic tubes. The electrocardiogram was derived by means of bipolar subcutaneous needle electrodes. The R-peak was used to trigger a beat counter. The heart rate measured 1 and 3 hours after treatment was given in Table II as a percentage of the control value (placebo).

[3] = 3 h, rat, per os, 1st-3rd hour, corrected for changes in placebo group, read-out: O2 consumption, % of the value of the pre-period, 1st-3rd hour
[4] = 12 h, rat, per os, 1st-12th hour, corrected for changes in placebo group, read-out: O2 consumption, % of the value of the pre-period, 1st-12th hour
[5] = 3 h, rat, per os, dosage 10 μM/kg, 1st-3rd hour, corrected for changes in placebo group, read-out: O2 consumption, % of the value of the pre-period, 1st-3rd hour
[6] = 12 h, rat, per os, dosage 10 μM/kg, 1st-12th hour, corrected for changes in placebo group, read-out: O2 consumption, % of the value of the pre-period, 1st-12th hour

| Structure (SMILES) | response vs control in vivo at 3 µM, 3 µmol/kg [1, 3] [%] | response vs control in vivo at 3 µM, 3 µmol/kg [1, 4] [%] | Heart rate (% of controls), 1 hour ([2]; dosage 10 mg/kg) | Heart rate (% of controls), 3 hours ([2]; dosage 10 mg/kg) | Heart rate (% of controls), 1 hour ([2]; dosage 30 mg/kg) | Heart rate (% of controls), 3 hours ([2]; dosage 30 mg/kg) | response vs control in vivo at 10 µM, 10 µmol/kg ([1]; Rattus norvegicus, 3 h, read-out: O2 consumption, % of the value of the pre-period, 1st-3rd hour) [%] | response vs control in vivo at 10 µM, 10 µmol/kg ([1]; Rattus norvegicus, 12 h, read-out: O2 consumption, % of the value of the pre-period, 1st-12th hour) [%] | Heart rate (% of controls), 1 hour ([2]; dosage 100 mg/kg) | Heart rate (% of controls), 3 hours ([2]; dosage 100 mg/kg) | response vs control in vivo at 10 µM, 10 µmol/kg [1, 5] [%] | response vs control in vivo at 10 µM, 10 µmol/kg [1, 6] [%] |
| --- | --- | --- | --- | --- | --- | --- | --- | --- | --- | --- | --- | --- |
| CCOCCOc1ccc(CCN(CC(CO)c2ccccc2)CC(CO)c2ccccc2)cc1 (racemic) [Example 2c] | 132 | 108 | 103 % of controls | 102 % of controls | 111 % of controls | 104 % of controls |  |  |  |  |  |  |
| CCOCCOc1ccc(CCNCC(CO)c2ccccc2)cc1.O=C(O)C(=O)O (single isomer, unassigned) [Example 3a, (R or S)-β-[[[p-(2-ethoxyethoxy)phenethyl]amino]methyl]-phenethyl alcohol oxalate] | 152 | 112 | 108 % of controls |  | 115 % of controls |  |  |  |  |  |  |  |
| CCOCCOc1ccc(C[C@@H](C)NCC(CO)c2ccccc2)cc1.O=C(O)C(=O)O (stereo partly drawn) [Example 2a, β-[[[(R)-p-(2-ethoxyethoxy)-α-methylphenethyl]amino]-methyl]-phenethyl alcohol oxalate] |  |  |  |  | 105 % of controls | 100 % of controls | 149 | 113 | 121 % of controls | 112 % of controls |  |  |
| CCOCCOc1ccc(CCNCC(CO)c2cccc(Cl)c2)cc1.O=C(O)C(=O)O (stereo not drawn) [Example 2b, m-chloro-β-[[[p-(2-ethoxyethoxy)phenethyl]amino]methyl]phenethyl alcohol oxalate] | 124 | 107 |  |  | 106 % of controls | 99 % of controls |  |  | 114 % of controls | 105 % of controls |  |  |
| CCOCCOc1ccc(CCN(CC(CO)c2cccc(Cl)c2)C[C@H](O)c2ccccc2)cc1 (stereo partly shown) [Example 2d, oxalate] | 152 | 127 | 103 % of controls | 100 % of controls | 111 % of controls | 104 % of controls |  |  |  |  |  |  |
| OCC(CNCCc1ccc(OCCOCCc2ccccc2)cc1)c1ccccc1 (stereo not drawn) [Example 2j, β-[[[p-(2-phenethoxy)ethoxy]phenethyl]amino]methyl]phenethyl alcohol oxalate] |  |  |  |  |  |  |  |  | 110 % of controls |  | 137 | 113 |
| CCOCCOc1ccc(CCNCC(CO)c2cccs2)cc1.O=C(O)C(=O)O (stereo not drawn) [Example 2o, β-[[[p-(2-ethoxyethoxy)phenethyl]amino]methyl]-2-thiophene-ethanol oxalate] |  |  |  |  | 108 % of controls |  |  |  | 111 % of controls |  | 147 | 115 |
| CCOC(=O)COc1ccc(CCNCC(CO)c2ccccc2)cc1 (stereo not drawn) [Example 4, ethyl [p-[2-[[β-(hydroxymethyl)phenethyl]-amino]ethyl]phenoxy]acetate hydrochloride] | 145 | 112 |  |  |  |  |  |  |  |  |  |  |
